Data published in ChEMBL document CHEMBL1147922, “Tetrahydroindazole inhibitors of bacterial type II topoisomerases. Part 2: SAR development and potency against multidrug-resistant strains” (Bioorg Med Chem Lett, 2007).
In brackets after ≈: the same amount, converted by molar mass.

Experiments:
Escherichia coli = experiment: Antibacterial activity against Escherichia coli KL16; assay type: functional
Streptococcus pneumoniae = experiment: Antibacterial activity against Streptococcus pneumoniae ATCC 49619; assay type: functional
Staphylococcus aureus [1] = experiment: Antibacterial activity against Staphylococcus aureus ATCC 13709; assay type: functional
[2] = Inhibition of bacterial DNA gyrase
[3] = Inhibition of bacterial DNA topoisomerase 4
Staphylococcus aureus [4] = experiment: Antibacterial activity against ciprofloxacin resistant methicillin resistant Staphylococcus aureus OC5273; assay type: functional
Staphylococcus aureus [5] = experiment: Antibacterial activity against ciprofloxacin resistant methicillin resistant Staphylococcus aureus OC3946; assay type: functional
Staphylococcus aureus [6] = experiment: Antibacterial activity against ciprofloxacin resistant methicillin resistant Staphylococcus aureus OC4222; assay type: functional
Staphylococcus aureus [7] = experiment: Antibacterial activity against ciprofloxacin resistant methicillin resistant Staphylococcus aureus OC4159; assay type: functional
Staphylococcus aureus [8] = experiment: Antibacterial activity against quinolone susceptible methicillin resistant Staphylococcus aureus OC2878; assay type: functional

| MIC (Escherichia coli) | MIC (Streptococcus pneumoniae) | MIC (Staphylococcus aureus [1]) | IC50 [2] | IC50 [3] | Structure (SMILES) | MIC (Staphylococcus aureus [4]) | MIC (Staphylococcus aureus [5]) | MIC (Staphylococcus aureus [6]) | MIC (Staphylococcus aureus [7]) | MIC (Staphylococcus aureus [8]) |
| --- | --- | --- | --- | --- | --- | --- | --- | --- | --- | --- |
| > 16 µg/mL | > 16 µg/mL | 0.25 µg/mL (≈ 0.499 µM) |  |  | COc1ccc2nccc(-n3cc4c(n3)CCC(NC(=O)c3cc5c(cc3C)SCC(=O)N5)C4)c2n1 (stereo not drawn) |  |  |  |  |  |
| > 16 µg/mL | > 16 µg/mL | 2 µg/mL (≈ 3.59 µM) |  |  | CCOC(=O)c1cc2c(cc1C(=O)NC1CCc3nn(-c4ccnc5ccc(OC)cc45)cc3C1)NC(=O)CS2 (stereo not drawn) |  |  |  |  |  |
| > 16 µg/mL | > 16 µg/mL | 1 µg/mL (≈ 1.89 µM) |  |  | COc1ccc2nccc(-n3cc4c(n3)CCC(NC(=O)c3cc5c(cc3C(=O)O)SCC(=O)N5)C4)c2c1 (stereo not drawn) |  |  |  |  |  |
|  | 2 µg/mL (≈ 4.7 µM) | 0.25 µg/mL (≈ 0.588 µM) | 8 µg/mL (≈ 18.8 µM) |  | COc1ccc2nccc(-n3cc4c(n3)CCC(NC(=O)/C=C/c3ccccc3)C4)c2n1 (stereo not drawn) |  |  |  |  |  |
|  | 4 µg/mL (≈ 9.42 µM) | 1 µg/mL (≈ 2.36 µM) | 16 µg/mL (≈ 37.7 µM) | 0.5 µg/mL (≈ 1.18 µM) | COc1ccc2nccc(-n3cc4c(n3)CCC(NC(=O)/C=C/c3ccccc3)C4)c2c1 (stereo not drawn) |  |  |  |  |  |
|  | < 0.125 µg/mL | 0.25 µg/mL (≈ 0.605 µM) | 0.8 µg/mL (≈ 1.93 µM) |  | COc1ccc2nccc(-n3cc4c(n3)CCC(NCCCc3ccccc3)C4)c2n1 (stereo not drawn) |  |  |  |  |  |
|  | 4 µg/mL (≈ 8.74 µM) | 0.25 µg/mL (≈ 0.546 µM) | > 16 µg/mL |  | COc1ccc2nccc(-n3cc4c(n3)CCC(NC(=O)c3ccc(C)c([N+](=O)[O-])c3)C4)c2c1 (stereo not drawn) |  |  |  |  |  |
|  | 8 µg/mL (≈ 16.5 µM) | 0.25 µg/mL (≈ 0.515 µM) |  |  | COc1ccc2nccc(-n3cc4c(n3)CCC(NC(=O)c3cc(F)c(Cl)cc3Cl)C4)c2c1 (stereo not drawn) |  |  |  |  |  |
| 8 µg/mL (≈ 16 µM) | 16 µg/mL (≈ 32 µM) | 0.5 µg/mL (≈ 1 µM) |  |  | COc1ccc2nccc(-n3cc4c(n3)CCC(NC(=O)c3cc5c(cc3C)SCC(=O)N5)C4)c2c1 (stereo not drawn) |  |  |  |  |  |
| > 16 µg/mL | > 16 µg/mL | 0.5 µg/mL (≈ 0.895 µM) |  |  | CCOC(=O)c1cc2c(cc1C(=O)NC1CCc3nn(-c4ccnc5ccc(OC)nc45)cc3C1)NC(=O)CS2 (stereo not drawn) |  |  |  |  |  |
| 32 µg/mL (≈ 74.5 µM) | 2 µg/mL (≈ 4.66 µM) | 0.5 µg/mL (≈ 1.16 µM) | 0.25 µg/mL (≈ 0.582 µM) | 0.25 µg/mL (≈ 0.582 µM) | COc1ccc2nccc(-n3cc4c(n3)CCC(NCc3ccc5c(c3)OCO5)C4)c2n1 (stereo not drawn) |  |  |  |  |  |
| 2 µg/mL (≈ 4.37 µM) | 2 µg/mL (≈ 4.37 µM) | 0.25 µg/mL (≈ 0.546 µM) | < 0.125 µg/mL | 0.016 µg/mL (≈ 0.035 µM) | COc1ccc2nccc(-n3cc4c(n3)CCC(NCc3ccc5c(n3)NC(=O)CO5)C4)c2n1 (stereo not drawn) |  |  |  |  |  |
| > 16 µg/mL | 16 µg/mL (≈ 30.2 µM) | 0.5 µg/mL (≈ 0.942 µM) |  |  | COc1ccc2nccc(-n3cc4c(n3)CCC(NC(=O)c3cc5c(cc3C(=O)O)SCC(=O)N5)C4)c2n1 (stereo not drawn) |  |  |  |  |  |
|  | 8 µg/mL (≈ 17.4 µM) | 0.25 µg/mL (≈ 0.545 µM) |  |  | COc1ccc2nccc(-n3cc4c(n3)CCC(NC(=O)c3ccc(C)c([N+](=O)[O-])c3)C4)c2n1 (stereo not drawn) |  |  |  |  |  |
| > 128 µg/mL | 4 µg/mL (≈ 7.65 µM) | 0.125 µg/mL (≈ 0.239 µM) | 1 µg/mL (≈ 1.91 µM) |  | COc1ccc2nccc(-n3cc4c(n3)CCC(NC(=O)c3c(F)cc5c(c3F)NC(=O)CS5)C4)c2n1 (stereo not drawn) |  |  |  |  |  |
| 2 µg/mL (≈ 3.54 µM) | 2 µg/mL (≈ 3.54 µM) | 0.125 µg/mL (≈ 0.221 µM) | 0.5 µg/mL (≈ 0.886 µM) | 0.125 µg/mL (≈ 0.221 µM) | COc1ccc2nccc(-n3cc4c(n3)CCC(NC(=O)c3cc5c(cc3Br)SCC(=O)N5)C4)c2c1 (stereo not drawn) |  |  |  |  |  |
| 4 µg/mL (≈ 7.21 µM) | 8 µg/mL (≈ 14.4 µM) | 0.125 µg/mL (≈ 0.225 µM) | 0.25 µg/mL (≈ 0.451 µM) |  | COc1ccc2nccc(-n3cc4c(n3)CCC(NC(=O)c3cc5c(cc3C(F)(F)F)SCC(=O)N5)C4)c2n1 (stereo not drawn) |  |  |  |  |  |
| 2 µg/mL (≈ 4.26 µM) | 4 µg/mL (≈ 8.52 µM) | 0.125 µg/mL (≈ 0.266 µM) | 0.25 µg/mL (≈ 0.532 µM) | 0.5 µg/mL (≈ 1.06 µM) | COc1ccc2nccc(-n3cc4c(n3)CCC(NC(=O)c3ccc5c(c3)NC(=O)CO5)C4)c2c1 (stereo not drawn) |  |  |  |  |  |

| Structure (SMILES) | MIC (Escherichia coli) | MIC (Streptococcus pneumoniae) | MIC (Staphylococcus aureus [1]) | IC50 [2] | IC50 [3] | MIC (Staphylococcus aureus [4]) | MIC (Staphylococcus aureus [5]) | MIC (Staphylococcus aureus [6]) | MIC (Staphylococcus aureus [7]) | MIC (Staphylococcus aureus [8]) |
| --- | --- | --- | --- | --- | --- | --- | --- | --- | --- | --- |
| COc1ccc2nccc(-n3cc4c(n3)CCC(NC/C=C/c3ccccc3)C4)c2c1 (stereo not drawn) |  | 1 µg/mL (≈ 2.44 µM) | 0.5 µg/mL (≈ 1.22 µM) | 4 µg/mL (≈ 9.74 µM) |  | 1 µg/mL (≈ 2.44 µM) | 0.5 µg/mL (≈ 1.22 µM) | 0.25 µg/mL (≈ 0.609 µM) | 0.5 µg/mL (≈ 1.22 µM) | 0.5 µg/mL (≈ 1.22 µM) |
| COc1ccc2nccc(-n3cc4c(n3)CCC(NC/C=C/c3ccccc3)C4)c2n1 (stereo not drawn) |  | < 0.125 µg/mL | 0.06 µg/mL (≈ 0.146 µM) | 0.12 µg/mL (≈ 0.292 µM) | < 0.015 µg/mL | 0.125 µg/mL (≈ 0.304 µM) | 0.062 µg/mL (≈ 0.151 µM) | 0.062 µg/mL (≈ 0.151 µM) | 0.062 µg/mL (≈ 0.151 µM) | 0.125 µg/mL (≈ 0.304 µM) |
| O=C(O)c1cn(C2CC2)c2cc(N3CCNCC3)c(F)cc2c1=O [CIPROFLOXACIN] |  |  | 0.25 µg/mL (≈ 0.754 µM) |  |  |  |  |  |  |  |
| CCn1cc(C(=O)O)c(=O)c2cc(F)c(N3CCNCC3)cc21 [NORFLOXACIN] |  |  | 1 µg/mL (≈ 3.13 µM) |  |  | > 128 µg/mL | 128 µg/mL (≈ 401 µM) | > 128 µg/mL | > 128 µg/mL | 1 µg/mL (≈ 3.13 µM) |
| C[C@@H]1CN(c2c(F)c(N)c3c(=O)c(C(=O)O)cn(C4CC4)c3c2F)C[C@H](C)N1 [SPARFLOXACIN] |  |  | 0.062 µg/mL (≈ 0.158 µM) |  |  | 16 µg/mL (≈ 40.8 µM) | 4 µg/mL (≈ 10.2 µM) | 8 µg/mL (≈ 20.4 µM) | 16 µg/mL (≈ 40.8 µM) | 0.062 µg/mL (≈ 0.158 µM) |
